In patent US9597431B2, “Compositions and methods for promoting bone formation” (Warsaw Orthopedic, Inc., priority 2008, dated 2017):

B1: RANKL: recombinant receptor activator for nuclear factor κ B ligand, mixed with Grafton DBM FLEX demineralized bone matrix implant (protein, UniProt O14788 140-317, looked up)
Tumor necrosis factor ligand …: IRAEKAMVDGSWLDLAKRSKLEAQPFAHLTINATDIPSGSHKVSLSSWYHDRGWAKISNMTFSNGKLIVNQDGFYYLYANICFRHHETSGDLATEYLQLMVYVTKTSIKIPSSHTLMKGGSTKYWSGNSEFHFYSINVGGFFKLRSGEEISIEVSNPSLLDPDQDATYFGAFKVRDID

Assays:
[1] = test system: unilateral transverse femur fractures mice; conditions: osteoclast inhibitors; cited from earlier work
[2] = test system: three millimeter defects in femurs of athymic rats; assay: Critical defect model in rat femurs, new bone formation by MicroCT; format: in vivo; conditions: two micrograms recombinant RANKL mixed with 150 mg Grafton DBM FLEX vs Grafton DBM FLEX alone, three weeks
Method: To test whether recombinant RANKL mixed with DBM may aid bone healing, a critical defect model was used in rat femurs. Three millimeter defects were created in femurs of athymic rats. The rats were divided into two groups, the bone defects from one group were implanted with 150 mg of Grafton® DBM FLEX (Osteotech, Eatontown, N.J.), the second group received Grafton® DBM FLEX mixed with two micrograms of recombinant RANKL. At three weeks, the rat femur defects were evaluated by MicroCT. […] Data was analyzed using paired student-t-test.

| Molecule | removal of cartilage and remodeling of the fracture callus [1] | new bone formation compared to control group [2] |
| --- | --- | --- |
| denosumab: osteoclast inhibitor | delayed | – |
| NCCCC(O)(P(=O)(O)O)P(=O)(O)O [alendronate] | delayed | – |
| B1 | – | significantly (p<0.05) higher |
